Assays:
Ba/F3_KRAS^G12D cells = Ba/F3_KRAS^G12D cells (Homo sapiens, UniProt P01116, G12D, cells depend on it); test: Ba/F3 KRAS^G12D cell proliferation assay (cell-titer Glo); type: cell-based; settings: cell growth inhibition, treated with the compounds for 3 days, read-out: BaF3_KRAS^G12D IC50
[1] = biological target: recombinant human KRAS^G12D protein (Homo sapiens, UniProt P01116, G12D); test: Temperature-dependent Fluorescence (TdF) KRAS^G12D protein binding assay; settings: 6 μM KRAS^G12D Protein, 10 μM compound, Sypro Orange; Kd calculated from fluorescent shift
Summary of the method: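 Sypro Orange thermal-shift assay, heating from 30 to 95 °C with readings every 0.4 °C (ex 470/em 570 nm). Binding is gauged as ΔTm with versus without compound. Kd is calculated from the degree of the unfolding-temperature shift.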

Chain of Ba/F3_KRAS^G12D cells (P01116 whole entry G12D): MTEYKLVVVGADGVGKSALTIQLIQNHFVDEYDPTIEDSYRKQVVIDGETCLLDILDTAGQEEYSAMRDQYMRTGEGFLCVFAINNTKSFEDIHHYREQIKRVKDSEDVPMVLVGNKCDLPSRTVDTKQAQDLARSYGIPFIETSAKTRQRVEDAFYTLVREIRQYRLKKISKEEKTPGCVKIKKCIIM
Chain of recombinant human KRAS^G12D protein (P01116 1-188 isoform P01116-2 G12D): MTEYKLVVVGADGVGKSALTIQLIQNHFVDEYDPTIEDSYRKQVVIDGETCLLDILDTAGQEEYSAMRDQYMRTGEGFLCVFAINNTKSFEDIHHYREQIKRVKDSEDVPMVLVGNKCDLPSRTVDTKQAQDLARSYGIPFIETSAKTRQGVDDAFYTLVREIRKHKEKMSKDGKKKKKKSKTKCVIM

| GI50 (Ba/F3_KRAS^G12D cells) | Kd [1] | SMILES |
| --- | --- | --- |
| < 500 nM | ≤ 500 nM | CCc1c(F)ccc2cc(O)cc(-c3nc(OC)c4c(N5CC6CCC(C5)N6)nc(OC[C@@]56CCCN5C[C@H](F)C6)nc4c3F)c12 [Compound 139] |
| < 500 nM | ≤ 500 nM | C#Cc1c(F)ccc2cc(O)cc(-c3nc(OC)c4c(N5CC6CCC(C5)N6)nc(OC[C@]56CCCN5[C@@H](COC(=O)N(C)C)CC6)nc4c3F)c12 [Compound 176] |
| < 500 nM | ≤ 500 nM | C#Cc1c(F)ccc2cc(O)cc(-c3nc(OC(C)C)c4c(N5CC6CCC(C5)N6)nc(OC[C@@H]5CCCN5C)nc4c3F)c12 [Compound 195] |
| < 500 nM | ≤ 500 nM | CCc1cccc2cc(O)cc(-c3nc(C(F)F)c4c(N5CC6CCC(C5)N6)nc(OC[C@@]56CCCN5C[C@H](F)C6)nc4c3F)c12 [Compound 136] |
| < 500 nM | ≤ 500 nM | C#Cc1c(F)ccc2cc(O)cc(-c3nc(Cl)c4c(N5CC6CCC(C5)N6)nc(OC[C@@]56CCCN5C[C@H](F)C6)nc4c3F)c12 [Compound 132] |
| < 500 nM | ≤ 500 nM | CCc1c(F)ccc2cc(O)cc(-c3nc(C)c4c(N5CC6CCC(C5)N6)nc(OC[C@@]56CCCN5C[C@H](F)C6)nc4c3F)c12 [Compound 137] |
| < 500 nM | ≤ 500 nM | C#Cc1c(F)ccc2cc(O)cc(-c3nc(OC(C)C)c4c(N5CC6CCC(C5)N6)nc(OC[C@@H]5C[C@@H](F)CN5C)nc4c3F)c12 [Compound 197] |
| < 500 nM | ≤ 500 nM | Cc1nc(-c2cc(O)cc3ccc(F)c(Cl)c23)c(F)c2nc(OC[C@@]34CCCN3C[C@H](F)C4)nc(N3CC4CCC(C3)N4)c12 [Compound 126] |
| > 5000 nM | > 5000 nM | Oc1cc(-c2ncc3c(C4CC5CCC(C4)N5)nc(OC[C@@]45CCCN4C[C@H](F)C5)nc3c2F)c2c(Cl)cccc2c1 (some centres unmarked) [Compound 100] |
| < 500 nM | ≤ 500 nM | C#Cc1c(F)ccc2cc(O)cc(-c3cc4nc(OC[C@@]56CCCN5C[C@H](F)C6)nc(N5CC6CCC(C5)N6)c4c(C)n3)c12 [Compound 131] |
| < 500 nM | ≤ 500 nM | Cc1cccc2cc(O)cc(-c3nc(C)c4c(N5CC6CCC(C5)N6)nc(OC[C@@]56CCCN5C[C@H](F)C6)nc4c3F)c12 [Compound 93] |
| 500 to 5000 nM | ≤ 500 nM | Oc1cc(-c2cc3nc(OC[C@@]45CCCN4C[C@H](F)C5)nc(N4CC5CCC(C4)N5)c3nn2)c2c(Cl)cccc2c1 [Compound 94] |
| < 500 nM | ≤ 500 nM | C#Cc1c(F)ccc2cc(O)cc(-c3nc(C(F)F)c4c(N5CC6CCC(C5)N6)nc(OC[C@@]56CCCN5C[C@H](F)C6)nc4c3F)c12 [Compound 165] |
| < 500 nM | ≤ 500 nM | Cc1nc(-c2cc(O)cc3cccc(Cl)c23)c(Cl)c2nc(OC[C@@]34CCCN3C[C@H](F)C4)nc(N3CC4CCC(C3)N4)c12 [Compound 130] |
| 500 to 5000 nM | 500 to 5000 nM | COc1nc2c(N3CC4CCC(C3)N4)nc(OC[C@@H]3CCCN3C)nc2cc1-c1cc(O)cc2ccccc12 [Compound 91] |
| < 500 nM | ≤ 500 nM | C#Cc1c(F)ccc2cc(O)cc(-c3nc(OC)c4c(N5CC6CCC(C5)N6)nc(OC[C@@H]5CCCN5C)nc4c3F)c12 [Compound 160] |

Continued, molecule first:

| SMILES | GI50 (Ba/F3_KRAS^G12D cells) | Kd [1] |
| --- | --- | --- |
| CN(C)CCCOc1nc(N2CC3CCC(C2)N3)c2cc(F)c(-c3cccc4cccc(Cl)c34)nc2n1 [Compound 15] | > 5000 nM | > 5000 nM |
| CN(C)CCCOc1nc(N2CC3CCC(C2)N3)c2cnc(-c3cccc4ccccc34)nc2c1Cl [Compound 25] | 500 to 5000 nM | > 5000 nM |
| Oc1cc(-c2ncc3c(N4CCNCC4)nc(OC[C@@]45CCCN4C[C@H](F)C5)nc3c2F)c2c(Cl)cccc2c1 [Compound 72] | 500 to 5000 nM | ≤ 500 nM |
| Fc1c(-c2cccc3cccc(Cl)c23)nc(OCC23CCCN2CCC3)c2ccc(N3CCNCC3)nc12 [Compound 31] | 500 to 5000 nM | > 5000 nM |
| Oc1cc(-c2ncc3c(N4CC5CCC(C4)N5)nc(OCC45CCCN4CCC5)cc3n2)c2c(Cl)cccc2c1 [Compound 51] | > 5000 nM | > 5000 nM |
| Nc1nc2c(-c3ncc4c(N5CC6CCC(C5)N6)nc(OC[C@@]56CCCN5C[C@H](F)C6)nc4c3F)ccc(F)c2s1 [Compound 68] | > 5000 nM | ≤ 500 nM |
| C[C@H]1CNCCN1c1nc(OCCN(C)C)cc2nc(-c3ccccc3F)c(F)cc12 [Compound 13] | 500 to 5000 nM | > 5000 nM |
| Clc1cccc2cccc(-c3ncc4c(N5C6CCC5CNC6)nc(OCC56CCCN5CCC6)cc4n3)c12 [Compound 52] | 500 to 5000 nM | > 5000 nM |
| CN1CCC[C@@H]1COc1nc(-c2cccc3ccccc23)c(F)c2nc(N3CCNCC3)ccc12 [Compound 54] | 500 to 5000 nM | > 5000 nM |
| COc1cc(-c2cc3nc(OC[C@@H]4CCCN4C)nc(N4CC5CCC(C4)N5)c3nc2OC)c2ccccc2c1 [Compound 86] | 500 to 5000 nM | > 5000 nM |
| CCc1cccc2cc(O)cc(-c3nc(C)c4c(N5CC6CCC(C5)N6)nc(OC[C@@]56CCCN5C[C@H](F)C6)nc4c3F)c12 [Compound 85] | < 500 nM | ≤ 500 nM |
| O=C(C(O)O)N1CCN(c2nc(OC[C@@]34CCCN3C[C@H](F)C4)nc3c(F)c(-c4cc(O)cc5cccc(Cl)c45)ncc23)CC1 [Compound 79] | > 5000 nM | > 5000 nM |
| Fc1ccc2cccc(-c3ncc4c(N5CC6CCC(C5)N6)nc(OC[C@@]56CCCN5C[C@H](F)C6)nc4c3F)c2c1Cl [Compound 76] | < 500 nM | ≤ 500 nM |
| Fc1cc2c(N3CCNCC3)nc(OCC34CCCN3CCC4)nc2nc1-c1cccc2cccc(Cl)c12 [Compound 5] | > 5000 nM | > 5000 nM |
| CN(C)C1CN(c2nc(-c3cccc4cccc(Cl)c34)c(F)c3nc(N4CCNCC4)ccc23)C1 [Compound 50] | 500 to 5000 nM | > 5000 nM |
